The record followed here is US20060058270A1, “Ruthenium anticancer complexes” (priority 2002, published 2006).

Usually IC50 stands for the point on the concentration scale where inhibition reaches its midpoint. Read a low IC50 as greater potency.

The first assay has as its system A2780 ovarian cancer cell line. The experiment in a line: Cytotoxicity of Ru compounds on A2780 ovarian cancer cell line (cell count, Coulter counter). Format: cell-based. The note with it: A2780 cells; 24 hours drug exposure, further 3 days growth, cells counted. As to the method: 1. Protocol for Testing Ru Compounds The compounds are tested on 24-well trays. Cells growing in a flask are harvested just before they become confluent, counted using a haemocytometer and diluted down with media to a concentration of 1×10^4 cells per ml. The cells are then seeded in the 24-well trays at a density of 1×10^4 cells per well (i.e. 1 ml of the diluted cell suspension is added to each well). The cells are then left to plate down and grow for 72 hours before adding the compounds of the invention. The Ru complexes are weighed out and made up to a concentration of 1 mg/ml with deionised water and 0.5% w/w DMSO. The appropriate volume of the Ru solution is added to 5 ml of media to make it up to a concentration of 100 μM for each drug. This 100 μM solution is then serially diluted to make up the 10 μM, 1 μM and 0.1 μM solutions. The media is removed from the cells and replaced with 1 ml of the media dosed with drug. Each concentration is done in duplicate. A set of control wells are left on each plate, containing media and 0.5% w/w DMSO without drug. The cells are left exposed to the drugs for 24 hours and then washed with phosphate buffered saline before fresh media is added. They are allowed to grow on for a further 3 days before being counted using a Coulter counter. Preparing Cells for Counting: Media is removed and 1 ml of PBS is added to the cells. 250 μl of trypsin is added and cells left in incubator for a few minutes to allow the monolayers to detach. Once trypsinised, 250 μl of media is added to each well to neutralise the trypsin. 200 μl of this suspension is added to 10 ml of NaCl for counting. Using the above protocol, a number of compounds of the invention were tested on A2780 ovarian cancer cell line. […]
The molecule `CC(=O)C=C(C)[O][Ru][Cl].Cc1ccc(C(C)C)cc1` [Example 1, [(η^6-p-cymene)RuCl(H3CCOCHCOCH3-O,O)]] registered an IC50 of 19 µM.

On to `Cc1ccc(C(C)C)cc1.O=C([CH-]C(=O)C(F)(F)F)C(F)(F)F.[Cl-].[Ru+2]` [Example 2, [(η^6-p-cymene)RuCl(F3CCOCHCOCF3—O,O)]], for which the IC50 was above 100 µM.

In turn, `Cc1ccc(C(C)C)cc1.O=C([CH-]C(=O)c1ccccc1)c1ccccc1.[Cl-].[Ru+2]` [Example 3, [(η^6-p-cymene)RuCl(C6H5COCHCOC6H5—O,O)]] registered an IC50 of 11 µM.

In the case of `CC(C)(C)C(=O)[CH-]C(=O)C(C)(C)C.Cc1ccc(C(C)C)cc1.[Cl-].[Ru+2]` [Example 4, [(η^6-p-cymene)RuCl((CH3)3CCOCHCOC(CH3)3—O,O)]], the IC50 amounted to 14 µM.

`CC(=O)C=C(C)[O][Ru][Cl].c1ccc(-c2ccccc2)cc1` [Example 5, [(η^6—C6H5C6H5RuCl(H3CCOCHCOCH3—O,O)]]: the IC50 came out at 21 µM.

With `CC#N.CC(=O)C=C(C)[O][Ru+].Cc1ccc(C(C)C)cc1.F[B-](F)(F)F` [Example 6, [(η^6-p-cymene)Ru(CH3CN)(H3CCOCHCOCH3—O,O)]BF4], 22 µM corresponded to half-maximal inhibition (IC50).

Another assay deals with guanosine and adenosine. Kind of assay: 1H NMR study of binding to DNA bases (guanosine/adenosine adduct formation). The note with it: 500 MHz 1H NMR; guanosine:adenosine:compound mole ratio 1.3:1:1 in 10% D2O/90% H2O. The source says:
The ability of the compounds of the invention to bind to DNA bases was studied by nmr and the results are illustrated in the accompanying figures in which:
FIG. 1 is a 500 MHz ^1H NMR spectrum of a mixture of guanosine:adenosine:compound of Example 1 in the mole ratio 1.3:1:1, respectively, in 10% D2O/90% H2O.
In FIG. 2, the region from 5.1 to 5.4 ppm (right) corresponds to the central CH on the acac ligand. Peaks a and b correspond to the adenosine adducts, peak c to the guanosine adduct. In the region 7.9-8.6 ppm (left), peaks for the H2 and H8 protons of adenosine and H8 protons of guanosine appear. […] The atom labelling scheme for the nucleobase part (A and G) of the nucleosides is shown.
`CC(=O)C=C(C)[O][Ru][Cl].Cc1ccc(C(C)C)cc1` [Example 1, [(η^6-p-cymene)RuCl(H3CCOCHCOCH3-O,O)]]: the “adduct formation with adenosine and guanosine (binding to DNA bases)” value is “both adenosine and guanosine form adducts”.
